# In patent US5494898A, “Peptide skeletal muscle relaxants” (priority 1994, dated 1996):
# Square brackets hold non-standard residues; d marks the D form. Peptide text beside a SMILES is read from it. * marks the point of attachment. dLys(Me3) = C[N+](C)(C)CCCC[C@@H](N)C(=O)O; Boc = CC(C)(C)OC(=O)*
# Experiments:
# neuromuscular junction [1] = assay: Rabbit paw twitch analysis; assay type: in vivo; settings: for ED90 (dose required to depress twitch tension to 10% of control): anesthetized male New Zealand white rabbits, i.v. marginal ear vein
# From the text: In a large series of similar relaxants, the rabbit dose is typically 125% of that in mice. The mechanism of action was also confirmed in this test by observing train-of-four and tetanus fade, post-tetanic potentiation of single twitches and administration of the anticholinesterase drug neostigmine which reverses the relaxation. Reversibility, rapid onset and short duration are important factors to the anesthesiologist.
# The following is a brief description of the methodologies used in rabbits to describe neuromuscular blocking activity of the subject compounds. A more detailed description of these methods is presented in "Microcomputer Use in Measuring Onset, Duration, and Recovery from Non-Depolarizing Skeletal Muscle Relaxants in Rabbits", P.D. Thut et al., Drug development Research 5:182, 1985.
# Male New Zealand white rabbits weighing between 2.5 and 3.4 kg were anesthetized with pentobarbital (30 mg/kg) and placed on their backs upon a 40° C. water filled temperature regulation pad. Following tracheostomy, the lungs were mechanically ventilated at 28 breaths per minute with room air, using an open system delivering 200 ml/stroke. This ventilation maintained pCO2 at 38 […] and pO2 at 85 mmHg. Direct arterial blood pressure was measured from the right common carotid artery. The test compounds were administered through a cannula placed in the marginal ear vein. Each foreleg was taped to a cushioned plate held in a femur clamp attached to the spinal board rack. The left central digit of each paw was connected to a force displacement transducer for measurement of muscle tension. Nerve stimulation was provided by pairs of pin electrodes placed on both sides of the ulnar nerve at the elbow of both forearms. The right ulnar nerve was stimulated at 1 Hz, 1 pps for 0.5 msec duration. The left ulnar nerve was similarly stimulated, every 15 seconds, with addition of interspersed trains-of-four and tetanizing stimuli. The parameters reported in Table II are: potency (ED90), which is the dose required to depress twitch tension to 10% of its control value; onset (T85%), which is the time from injection until 85% of the maximal drug effect is achieved; duration, which is the time from injection until the train-of-four has recovered to 75%; blood pressure (BP), which is the percentage change of pre-drug blood pressure; and heart rate (HR), which is the percentage change from pre-drug heart rate.
# neuromuscular junction [2] = assay: Mouse inclined screen grip strength test (neuromuscular junction blocking activity); assay type: in vivo; settings: mice on screen inclined 45°; dose required to inhibit grip strength
# Procedure: The first step, in mice, establishes a preliminary estimate of the potency and efficacy of the compounds. The animals were placed on a screen, inclined 45° to the horizontal. Effective doses caused the mice to lose their grip and slide down the inclined screen. The dose in mg/kg of body weight required to inhibit grip strength in 100% of the mice tested in a dosage group is reported.
smiles,measurement,setting,value
CC(=O)O[C@H]1C[C@@H]2CC[C@@H]3[C@H](CC[C@@]4(C)[C@H]3C[C@H]([N+]3(C)CCCCC3)[C@@H]4OC(C)=O)[C@@]2(C)C[C@@H]1[N+]1(C)CCCCC1 [pancuronium],ED90 (dose required to depress twitch tension to 10% of control),neuromuscular junction [1],0.02 mg/kg
same,Duration (time from injection until train-of-four recovered to 75%),"neuromuscular junction [1]; rabbit, equi-efficacious dose",35.50 min
same,T85% onset (time from injection until 85% of maximal drug effect),"neuromuscular junction [1]; rabbit, equi-efficacious dose",147.50 s
CC(=O)O[C@H]1C[C@@H]2CC[C@@H]3[C@H](CC[C@@]4(C)[C@H]3C[C@H]([N+]3(C)CCCCC3)[C@@H]4OC(C)=O)[C@@]2(C)C[C@@H]1N1CCCCC1 [vecuronium],ED90 (dose required to depress twitch tension to 10% of control),neuromuscular junction [1],0.02 mg/kg
same,HR (% change from pre-drug heart rate),"neuromuscular junction [1]; rabbit, equi-efficacious dose",-9.90 % change
same,T85% onset (time from injection until 85% of maximal drug effect),"neuromuscular junction [1]; rabbit, equi-efficacious dose",97.30 s
same,"Neuromuscular Junction Blocking Activity (ED90), Mouse",neuromuscular junction [2],0.03 mg/kg
COc1ccc(CC2c3cc(OC)c(OC)cc3CC[N+]2(C)CCC(=O)OCCCCCOC(=O)CC[N+]2(C)CCc3cc(OC)c(OC)cc3C2Cc2ccc(OC)c(OC)c2)cc1OC (stereo not drawn) [atracurium],ED90 (dose required to depress twitch tension to 10% of control),neuromuscular junction [1],0.05 mg/kg
same,T85% onset (time from injection until 85% of maximal drug effect),"neuromuscular junction [1]; rabbit, equi-efficacious dose",126.90 s
same,"Neuromuscular Junction Blocking Activity (ED90), Mouse",neuromuscular junction [2],0.63 mg/kg
COC(=O)[C@@H](CCCC[N+](C)(C)C)NC(=O)[C@@H](Cc1ccccc1)NC(=O)[C@@H](CCCC[N+](C)(C)C)NC(=O)OC(C)(C)C [Compound B] (Boc-[dLys(Me3)]-[dF]-[dLys(Me3)]-OMe),HR (% change from pre-drug heart rate),"neuromuscular junction [1]; rabbit, equi-efficacious dose",8.79 % change
same,BP (% change of pre-drug blood pressure),"neuromuscular junction [1]; rabbit, equi-efficacious dose, carotid arterial pressure",-18.83 % change
